Data published in patent US6673827B1, “Methods of treating fungal infections with inhibitors of NAD synthetase enzyme” (priority 1999, dated 2004).
Read-outs that look alike come from different tables or passages of the source.

Key:
[1] = molecular target: T1, NAD synthetase (recombinant protein from B. subtilis; purified) (Bacillus subtilis, UniProt P08164); assay: NAD synthetase enzyme inhibition assay (coupled enzymatic assay, HTS); assay type: biochemical
T1 construct: made in house
Procedure: NAD Synthetase Enzyme Inhibition Assay-Determination of Test Compound Concentrations Providing 50% Inhibition ([…]) of the Maximum Enzyme Rate
The potential inhibitory activity of the synthetic compounds was determined by the use of a coupled enzymatic assay. The coupled assay involves two steps as summarized below. [drawing 98]
The measurement of inhibitory activities of the test compounds was facilitated by the use of a high through-put screening system (HTS system). The HTS system utilizes an integrated Sagian 2M ORCA robotic system coordinating the functions of a Beckman Biomek 2000 liquid handler and a Molecular Devices SpectraMax Plus spectrophotometer. The 2M ORCA robotic station is responsible for the movement of all hardware and the integration of multiple stations on the worksurface. The Biomek 2000 is programmed to perform all phases of liquid dispensing and mixing. The SpectraMax Plus spectrophotometer is equipped to monitor absorbance in a 96-well plate format.
The Biomek 2000 mixes these components utilizing a predefined mixing program. […] The reaction is monitored by measuring the increase in absorbance at 340 nm (NADH). The linear portion of the reaction is monitored for 180 sec. The initial velocity is determined using Softmax Pro, the software supplied with the Molecular Devices SpectrMax Plus spectrophotometer.
The test compounds were supplied as a stock solution with a concentration of 50 mM dissolved in 100% dimethyl sulfoxide (DMSO). An initial screen was conducted on all compounds using a 2 or 3 concentration screen. The 2 panel screen used concentrations of 0.2 mM and 0.1 mM for the compounds. The 3 panel screen used concentrations of 0.2 mM, 0.1 mM, and 0.05 mM. […] The IC50 values for each compound were determined graphically from a plot of % inhibition versus […].

[2] = system: Candida albicans (ATCC 10231); assay: Minimum Inhibitory Concentration (MIC) against yeast, broth dilution; assay type: cell-based; conditions: for MIC: Candida albicans, read-out: MIC Candida albicans (ATCC 10231)
[3] = system: Torulopsis glabrata ERH-BC9938274; assay: In vitro study of inhibition of growth and lethality against yeast (MIC/MLC susceptibility test), isolate F; assay type: cell-based; conditions: Torulopsis glabrata, 1st pair of lines, isolate assigned by line order; for MIC / MFC: Nakaseomyces glabratus; for MFC: ERHBC9938274, read-out: Minimum Lethal Conc. (MLC)
[4] = system: Torulopsis glabrata JHC-BC9951635; assay: In vitro study of inhibition of growth and lethality against yeast (MIC/MLC susceptibility test), isolate E; assay type: cell-based; conditions: Torulopsis glabrata, 2nd pair of lines, isolate assigned by line order; for MIC / MFC: Nakaseomyces glabratus; for MFC: JHCBC9951635, read-out: Minimum Lethal Conc. (MLC)
[5] = system: Candida tropicalis ATCC 28707; assay: In vitro study of inhibition of growth and lethality against yeast (MIC/MLC susceptibility test), isolate B; assay type: cell-based; conditions: Candida tropicalis, 1st pair of lines, isolate assigned by line order; for MFC: ATCC28707, read-out: Minimum Lethal Conc. (MLC)
[6] = system: Candida tropicalis ATCC 750; assay: In vitro study of inhibition of growth and lethality against yeast (MIC/MLC susceptibility test), isolate A; assay type: cell-based; conditions: Candida tropicalis, 2nd pair of lines, isolate assigned by line order; for MFC: ATCC750, read-out: Minimum Lethal Conc. (MLC)
[7] = system: Candida albicans KJP-000531594; assay: In vitro study of inhibition of growth and lethality against yeast (MIC/MLC susceptibility test), isolate C; assay type: cell-based; conditions: Candida albicans, Candida albicans, 1st pair of lines
[8] = system: Cryptococcus neoformans DLB-1027594CNC; assay: In vitro study of inhibition of growth and lethality against yeast (MIC/MLC susceptibility test), isolate G; assay type: cell-based; conditions: Cryptococcus neoformans, DLB1027594CNC, Cryptococcus neoformans, 1st pair of lines, isolate assigned by line order; for MFC: read-out: Minimum Lethal Conc. (MLC)
[9] = system: Candida albicans LH-000664533; assay: In vitro study of inhibition of growth and lethality against yeast (MIC/MLC susceptibility test), isolate D; assay type: cell-based; conditions: Candida albicans, Candida albicans, 2nd pair of lines, isolate assigned by line order; for MFC: LH000664533, read-out: Minimum Lethal Conc. (MLC)
[10] = system: Cryptococcus neoformans SLP-BC0012854; assay: In vitro study of inhibition of growth and lethality against yeast (MIC/MLC susceptibility test), isolate H; assay type: cell-based; conditions: Cryptococcus neoformans, Cryptococcus neoformans, 2nd pair of lines, isolate assigned by line order; for MFC: SLPBC0012854, read-out: Minimum Lethal Conc. (MLC)
[11] = system: Candida tropicalis (ATCC 28707-amphotericin B-resistant); assay: Minimum Inhibitory Concentration (MIC) against yeast, broth dilution; assay type: cell-based; conditions: Candida tropicalis, ATCC28707, 37° C., 20 hours, mean of duplicate
[12] = system: Candida tropicalis (ATCC 750); assay: as above; assay type: cell-based; conditions: Candida tropicalis, ATCC750; 37° C., 20 hours, mean of duplicate
[13] = 37° C., 20 hours, mean of duplicate
[14] = IC50 (μg/mL) for Inhibit. of NAD Synthetase, table of structures used in the yeast assay (Example 4)
[15] = ERHBC9938274, 24 h, read at 24 hr, read-out: Minimum Inhibitory Conc. (MIC), 24 hr.
[16] = ERHBC9938274, 48 h, read at 48 hr, read-out: Minimum Inhibitory Conc. (MIC), 48 hr.
[17] = JHCBC9951635, 24 h, read at 24 hr, read-out: Minimum Inhibitory Conc. (MIC), 24 hr.
[18] = JHCBC9951635, 48 h, read at 48 hr, read-out: Minimum Inhibitory Conc. (MIC), 48 hr.
[19] = ATCC28707, 24 h, read at 24 hr, read-out: Minimum Inhibitory Conc. (MIC), 24 hr.
[20] = ATCC28707, 48 h, read at 48 hr, read-out: Minimum Inhibitory Conc. (MIC), 48 hr.
[21] = ATCC750, 24 h, read at 24 hr, read-out: Minimum Inhibitory Conc. (MIC), 24 hr.
[22] = ATCC750, 48 h, read at 48 hr, read-out: Minimum Inhibitory Conc. (MIC), 48 hr.
[23] = KJP000531594, 24 h, read at 24 hr, isolate not given, assigned by line order and MLC of Table 4B, read-out: Minimum Inhibitory Conc. (MIC), 24 hr.
[24] = KJP000531594, 48 h, read at 48 hr, isolate assigned by line order, read-out: Minimum Inhibitory Conc. (MIC), 48 hr.
[25] = 48 h, read at 48 hr, read-out: Minimum Inhibitory Conc. (MIC), 48 hr.
[26] = 72 h, read at 72 hr, read-out: Minimum Inhibitory Conc. (MIC), 72 hr.
[27] = LH000664533, 24 h, read at 24 hr, read-out: Minimum Inhibitory Conc. (MIC), 24 hr.
[28] = LH000664533, 48 h, read at 48 hr, read-out: Minimum Inhibitory Conc. (MIC), 48 hr.
[29] = SLPBC0012854, 48 h, read at 48 hr, read-out: Minimum Inhibitory Conc. (MIC), 48 hr.
[30] = SLPBC0012854, 72 h, read at 72 hr, read-out: Minimum Inhibitory Conc. (MIC), 72 hr.

T1 sequence (P08164 whole entry): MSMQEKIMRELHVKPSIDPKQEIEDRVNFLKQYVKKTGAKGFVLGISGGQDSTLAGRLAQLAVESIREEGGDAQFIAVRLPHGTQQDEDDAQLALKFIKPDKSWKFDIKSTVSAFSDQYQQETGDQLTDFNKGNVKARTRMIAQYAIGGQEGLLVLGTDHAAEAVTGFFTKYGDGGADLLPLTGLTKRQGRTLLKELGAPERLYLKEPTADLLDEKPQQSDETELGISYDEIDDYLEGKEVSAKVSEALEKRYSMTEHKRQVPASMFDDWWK

C[n+]1cccc(C(=O)OCCCCCCCCCn2ccc3ccccc32)c1 [Compound 970]
IC50 ([1]; read-out: IC50: concentration of test compound producing 50% inhibition of the NAD synthetase enzyme rate, Table 1, recombinant B. subtilis NAD synthetase, absorbance at 340 nm): 20 µM | MIC Candida albicans (ATCC 10231) [2, 13]: 0.8 µg/mL

COC(=O)c1cc2ccccc2n1CCCCCCCCCOC(=O)Cc1ccc([N+](C)(C)C)cc1 [Compound 986]
MIC Candida albicans (ATCC 10231) [2, 13]: 2.3 µg/mL

COC(=O)c1cc2cc(OCc3ccccc3)ccc2n1CCCCCCCOC(=O)c1ccc[n+](C)c1 [Compound 976]
MIC Candida albicans (ATCC 10231) [2, 13]: 3.1 µg/mL

COC(=O)c1cc2ccccc2n1CCCCCCCOC(=O)Cc1ccc([N+](C)(C)C)cc1 [Compound 984]
MIC ([2]; ATCC10231, 20 h): 0.78 µg/mL

COC(=O)c1cc2ccccc2n1CCCCCCCCOC(=O)Cc1ccc([N+](C)(C)C)cc1 [Compound 985]
MIC Candida albicans (ATCC 10231) [2, 13]: 1.6 µg/mL

COC(=O)c1cc2cc(OCc3ccccc3)ccc2n1CCCCCCCCOC(=O)c1ccc[n+](C)c1 [Compound 977]
MIC Candida albicans (ATCC 10231) [2, 13]: 1.6 µg/mL

C[N+](C)(C)c1ccc(CC(=O)OCCCCCCCCn2ccc3cc(OCc4ccccc4)ccc32)cc1 [Compound 749]
MIC Candida albicans (ATCC 10231) [2, 13]: 1.6 µg/mL

Cc1[nH]c2ccccc2c1/C=C/C1=[N+](C)c2ccccc2C1(C)C.[Cl-] [Compound 1400]
IC50 [1, 14]: > 570 µM | MIC [3, 15]: > 34 µg/mL | MIC [3, 16]: > 32 µg/mL | MFC [3]: > 32 µg/mL | Minimum Inhibitory Conc. (MIC), 24 hr. ([3]; read at 24 hr): >32 µg/mL | MIC [4, 17]: > 33 µg/mL | MIC [4, 18]: > 32 µg/mL | MFC [4]: > 32 µg/mL | Minimum Inhibitory Conc. (MIC), 24 hr. ([4]; read at 24 hr): >32 µg/mL | MFC [5]: 16 µg/mL | Minimum Inhibitory Conc. (MIC), 48 hr. ([5]; read at 48 hr): 16 µg/mL | MIC [5, 19]: 16 µg/mL | MIC [5, 20]: 32 µg/mL | MFC [6]: > 32 µg/mL | MIC [6, 21]: > 32 µg/mL | MIC [6, 22]: > 32 µg/mL | MIC [7, 23]: > 32 µg/mL | MIC [7, 24]: > 32 µg/mL | MFC ([7]; KJP000531594, isolate assigned by line order, read-out: Minimum Lethal Conc. (MLC)): > 32 µg/mL | MIC [8, 25]: > 32 µg/mL | MIC [8, 26]: > 32 µg/mL | MFC [8]: > 32 µg/mL | MIC [9, 27]: > 32 µg/mL | MIC [9, 28]: > 32 µg/mL | MFC [9]: > 32 µg/mL | MIC [10, 29]: > 32 µg/mL | MIC [10, 30]: > 32 µg/mL | MFC [10]: > 32 µg/mL

C[N+](C)(C)c1ccc(CC(=O)OCCCCCCCCOc2ccc(OCc3ccccc3)cc2)cc1.[I-] [Compound 1094]
IC50 [1]: 20 µM | IC50 [1, 14]: 31.7 µM | MIC [11]: 0.78 µg/mL | MIC [3, 15]: 0.5 µg/mL | MIC [3, 16]: 1 µg/mL | MFC [3]: 4 µg/mL | Minimum Inhibitory Conc. (MIC), 24 hr. ([3]; read at 24 hr): 1 µg/mL | MIC [12]: 0.78 µg/mL | MIC [4, 17]: 0.5 µg/mL | MIC [4, 18]: 1 µg/mL | MFC [4]: 4 µg/mL | Minimum Inhibitory Conc. (MIC), 24 hr. ([4]; read at 24 hr): 1 µg/mL | MFC [5]: 2 µg/mL | MIC [5, 19]: 0.5 µg/mL | MIC [5, 20]: 0.5 µg/mL | MFC [6]: 4 µg/mL | MIC [6, 21]: 1 µg/mL | MIC [6, 22]: 1 µg/mL | MIC [7, 23]: 1 µg/mL | MIC [7, 24]: 2 µg/mL | MIC [8, 25]: 1 µg/mL | MIC [8, 26]: 1 µg/mL | MFC [8]: 2 µg/mL | MIC [9, 27]: 2 µg/mL | MIC [9, 28]: 2 µg/mL | MFC [9]: 8 µg/mL | MIC ([2]; ATCC10231, 37° C., 20 hours, mean of duplicate): 6.2 µg/mL | MIC [10, 29]: 1 µg/mL | MIC [10, 30]: 1 µg/mL | MFC [10]: 2 µg/mL
